Consider one compound from patent publication US11970497B2, “Tricyclic AKR1C3 dependent KARS inhibitors” (Novartis AG, priority 2019, dated 2024).

As usually defined, the AC50 is the midpoint of the concentration-response curve, whichever way the signal moves.

The test system of experiment [1] is NCI-H460 human lung cancer xenograft. Kind of experiment: In vivo efficacy in NCI-H460 xenograft. The arrangement: species or system mice. The following applies: for ΔT/ΔC: qd, Day 18. As to the method:
Compound 40 Dose Dependent In Vivo Efficacy in the KEAP1 Mutant and Moderately AKR1C3 Expressing Human Lung Cancer Xenograft NCI-H460
Anti-cancer efficacy of Compound 40 was assessed in the NCI-H460 human lung cancer xenograft model in mice that expresses moderate levels of AKR1C3. NCI-H460 tumors were established in nude female mice by injection of a tumor cells subcutaneously. When tumors reached approximately 200 mm^3, mice were randomized according to tumor volume into treatment groups (n=7 per group) on Day 8.

The target of another experiment is T1, Human KARS (Homo sapiens, UniProt Q15046).
T1 construct: Human KARS protein (residues 70-584) was expressed and purified; made in house
Kind of experiment: KARS AMP Transcreener FP assay. It is filed as biochemical. The settings on record: 50 nM human KARS, 20 μM ATP, 50 μM L-Lysine, 1 μM tRNA, 2 h at RT; read-out: Human KARS Transcreener AMP assay Qualified absolute AC50. The source says:
KARS AMP Transcreener FP Assay to Measure Inhibition of KARS Enzymatic Activity
Lysine-tRNA synthetase (KARS) is an enzyme that catalyzes the reaction of ATP, L-lysine, and tRNA(Lys) to form AMP, diphosphate, and L-lysyl-tRNA(Lys).
The Transceener® AMP/GMP (BellBrook Labs, Madison, WI, USA) is a far red, competitive fluorescence polarization (FP) immunoassay based on the detection of AMP, which is one of the products of aminoacylation of tRNA. In this assay, a fluorescently labeled AMP (AMP Alexa Fluor 633) is used as the tracer that can be recognized by a specific antibody. In the absence of AMP, all the tracer molecules are bound to the antibodies leading to large polarization. The AMP product generated by the enzyme reaction will compete with the tracer for binding to the antibody which leads to a decrease in the polarization. As such, the enzyme activity is inversely proportional to FP values.
Human KARS protein (residues 70-584) was expressed and purified using a similar protocol to what is described in literature (Crystal structure of tetrameric form of human lysyl-tRNA synthetase: Implications for multisynthetase complex formation Guo, M., Ignatov, M., Musier-Forsyth, K., Schimmel, P., Yang, X. L. (2008) Proc. Natl. Acad. Sci. Usa 105: 2331-2336).
The KARS enzyme assay was performed in a final volume of 10 μL per well of Corning Costar 384 well plate, flat bottom, black non-treated plate. The final assay concentration was 20 mM HEPES pH 7.5, 1 mM DTT, 50 nM human KARS, 20 μM ATP, 50 μM L-Lysine, 1 μM tRNA and 8 mM MgCl2. Compounds were serial diluted 1:3 in DMSO in a master plate to generate a 10 concentration points dose response with maximum concentration of 10 mM. 50 nL from compound master plate were spotted in each well of a 384 black plate (Corning 3573), and 5 μL of enzyme mixture containing 100 nM KARS diluted in assay buffer (20 mM HEPES pH 7.5 and 1 mM OTT) were added. The reaction was started by adding 5 μL of the substrate mixture containing 40 μM ATP (final 20 μM ATP), 100 μM L-Lysine (final 50 μM), 2 μM tRNA (final 1 μM), 16 mM MgCl2 (final 8 mM MgCl2) diluted in assay buffer (20 mM HEPES pH 7.5 and 1 mM OTT). The mixtures were mixed and incubated for 2 h at RT before the termination of the reaction.
Transcreener® stop and detection buffers were prepared (1× stop buffer [final: 0.5×], 2 nM Tracer [final: 1 nM] and 5 μg/ml anti-AMP antibody [final: 2.5 μg/ml] in deionized water) and 10 μL of the stop and detection mix were added to the reaction wells, mixed for a minute and centrifuged at 1000 rpm for 10 seconds. The plates were read after incubating at RT for 30-60 min using Infinite® M1000 with the following settings: Excitation wavelength: 635 nm; Emission wavelength: 680 nm. FP values of DMSO controls were used to normalize the data and calculate IC50s of compounds using the Helios Software suite.

Experiment [2] has as its system NCI-H1944 human lung cancer xenograft. Description: In vivo efficacy in NCI-H1944 xenograft. The arrangement: species or system mice. As to the method: Compound 40 Dose Dependent In Vivo Efficacy in High AKR1C3 Expressing Human Lung Cancer Xenograft NCI-H1944
Anti-cancer efficacy of Compound 40 was assessed in the NCI-H1944 human lung cancer xenograft model in mice that expresses high levels of AKR1C3. NCI-H1944 tumors were established in nude female mice by injection of a tumor cells subcutaneously. When tumors reached approximately 200 mm^3, mice were randomized according to tumor volume into treatment groups (n=8 per group) on Day 16.

The structures appear in SMILES notation.

T1 sequence (Q15046 70-584): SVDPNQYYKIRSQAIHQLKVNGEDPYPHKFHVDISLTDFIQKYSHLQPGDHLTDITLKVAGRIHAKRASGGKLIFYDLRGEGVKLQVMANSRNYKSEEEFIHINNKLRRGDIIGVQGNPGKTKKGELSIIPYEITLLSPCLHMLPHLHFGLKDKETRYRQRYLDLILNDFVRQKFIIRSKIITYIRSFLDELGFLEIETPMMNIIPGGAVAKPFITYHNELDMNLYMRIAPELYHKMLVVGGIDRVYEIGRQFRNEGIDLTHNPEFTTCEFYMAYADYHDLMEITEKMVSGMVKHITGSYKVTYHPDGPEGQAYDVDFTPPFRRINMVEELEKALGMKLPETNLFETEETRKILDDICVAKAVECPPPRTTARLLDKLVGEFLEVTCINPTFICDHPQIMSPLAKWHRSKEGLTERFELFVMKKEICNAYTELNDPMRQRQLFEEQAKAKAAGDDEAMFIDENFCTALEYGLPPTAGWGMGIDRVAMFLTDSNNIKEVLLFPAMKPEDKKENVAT

Regarding `O=C1CC2(CCN(C(=O)NCc3ccc(F)cc3)CC2)Nc2ccc(F)cc21` [Example 40], the “Tumor response” value is “clear reduction in efficacy” in experiment [1] (75 mg/kg qd); “some reduction in efficacy” in experiment [1] (150 mg/kg qd); “Tumor stasis” in experiment [1] (300 mg/kg qd); “Tumor stasis” in experiment [2] (75 mg/kg qd po); “efficacy benefit” in experiment [2] (all dose levels); “deep tumor regression” in experiment [2] (dose levels above 75 mg/kg qd, po). The ΔT/ΔC turned out to be 25.9% in experiment [1] (75 mg/kg, po); 5.6% in experiment [1] (150 mg/kg, po); 1.8% in experiment [1] (300 mg/kg po); 4.9% in experiment [2] (75 mg/kg po, qd, Day 44). For the same compound, at Human KARS, the half-maximal activity concentration (AC50) was above 10 µM. Moreover, the Regression in experiment [2] (150 mg/kg po, qd, Day 44) was determined as 98.5%; in experiment [2] (300 mg/kg po, qd, Day 44), 100%.
